Measured values as given in patent publication US9464066B2, “Deuterated compounds useful for treating neurodegenerative diseases” (PharmatrophiX, Inc., priority 2009, dated 2016).

Tested on: hippocampal neurons
Experiment: Measurement of activity relative to BDNF: prevention of degeneration of hippocampal neurons
Assay type: cell-based
Settings: hippocampal neurons from embryological day 16 mice, assessed 48 hours following cell seeding; BDNF maximum defined as 100%; baseline (CM) approximately 40%
Protocol: Compounds of the present application are tested for their ability to prevent the degeneration of hippocampal neurons as described in Massa et al J Neurosci. (2006) 26(20):5288-300. In brief, hippocampal neurons are isolated from embryological day 16 mice and seeded in 96-well tissue culture plates under conditions in which they degenerated in the absence of neurotrophin receptor ligands. Neuronal degeneration is assessed using morphological criteria 48 hours following cell seeding. The neurotrophins brain-derived neurotrophic factor (BDNF) and nerve growth factor (NGF) serve as positive controls. The maximum cell death preventing activity of BDNF is defined as 100% neurotrophic activity. The efficacy of NGF is 80% of that of BDNF. The neurotrophic activity of the test compounds at each applied concentration is quantitated in terms of a percentage of the maximum BDNF-supported survival level. In the presence of culture medium (CM) and the absence of BDNF or compounds, survival is approximately 40% of the BDNF maximum effect and this is regarded as baseline survival. For each compound, dose-response curves are generated and the EC50 and maximum survival percentage are derived.

NGF: neurotrophin nerve growth factor, serves as positive control in the hippocampal neuron survival assay
efficacy (neurotrophic activity as percentage of the maximum BDNF-supported survival): 80%
